Assay results from the supplement of paper PMC10307832.

Key:
Experiment in all cases: relative viability (nuclei count vs DMSO), 5 days (fraction); higher = more cells survive
RO-3306 + Olaparib = compound: C1=CC2=C(C=CC(=C2)C=C3C(=O)NC(=NCC4=CC=CS4)S3)N=C1 [RO-3306] + O=C(c1cc(Cc2n[nH]c(=O)c3ccccc23)ccc1F)N1CCN(C(=O)C2CC2)CC1 [Olaparib] (partner 8 µM)
Procedure, shortened: (§1)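 The day after seeding in 1536-well plates, lung cancer cell lines were treated by pin tool with a single drug, or with a fixed anchor-drug dose together with five library-drug doses (not always all listed) in √10 steps. After 5 days, a combined fix-and-stain solution (final 0.05% Triton X-100, 1% formaldehyde, 1 ug/ml Hoechst) was added. Nuclei counted on 4× images gave relative viability as treated counts over vehicle counts, reported as the median of duplicate plates.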

RO-3306 + Tozasertib = compound: C1=CC2=C(C=CC(=C2)C=C3C(=O)NC(=NCC4=CC=CS4)S3)N=C1 [RO-3306] + Cc1cc(Nc2cc(N3CCN(C)CC3)nc(Sc3ccc(NC(=O)C4CC4)cc3)n2)n[nH]1 [Tozasertib] (partner 0.1 µM)
Procedure, shortened: as §1

RO-3306 + Linsitinib = compound: C1=CC2=C(C=CC(=C2)C=C3C(=O)NC(=NCC4=CC=CS4)S3)N=C1 [RO-3306] + C[C@]1(O)C[C@@H](c2nc(-c3ccc4ccc(-c5ccccc5)nc4c3)c3c(N)nccn32)C1 [Linsitinib] (partner 1 µM)
Procedure, shortened: as §1

[1] = compound: O=S(=O)(c1ccccc1)N(CC(F)(F)F)c1ccc(C(O)(C(F)(F)F)C(F)(F)F)cc1 + CS(=O)(=O)CCNCc1ccc(-c2ccc3ncnc(Nc4ccc(OCc5cccc(F)c5)c(Cl)c4)c3c2)o1 [Lapatinib] (partner 2 µM)
Procedure, shortened: as §1

Cell Line	relative viability (RO-3306 + Olaparib; first compound 0.01 µM)	relative viability (RO-3306 + Olaparib; first compound 0.03162 µM)	relative viability (RO-3306 + Olaparib; first compound 0.1 µM)	relative viability (RO-3306 + Olaparib; first compound 0.3162 µM)	relative viability (RO-3306 + Olaparib; first compound 1 µM)	relative viability (RO-3306 + Tozasertib; first compound 0.01 µM)	relative viability (RO-3306 + Tozasertib; first compound 0.03162 µM)	relative viability (RO-3306 + Tozasertib; first compound 0.1 µM)	relative viability (RO-3306 + Tozasertib; first compound 0.3162 µM)	relative viability (RO-3306 + Tozasertib; first compound 1 µM)	relative viability (RO-3306 + Linsitinib; first compound 0.01 µM)	relative viability (RO-3306 + Linsitinib; first compound 0.03162 µM)	relative viability (RO-3306 + Linsitinib; first compound 0.1 µM)	relative viability (RO-3306 + Linsitinib; first compound 0.3162 µM)	relative viability (RO-3306 + Linsitinib; first compound 1 µM)	relative viability ([1]; first compound 0.8 µM)	relative viability ([1]; first compound 2.53 µM)	relative viability ([1]; first compound 8 µM)
201T	0.861	0.855	0.82	0.828	0.828	1	0.933	0.925	0.975	0.964	1.11	1.01	1.08	1.09	0.999	1.01	0.949	1.03
A549	0.308	0.295	0.297	0.367	0.303	–	–	–	–	–	0.762	0.305	0.622	0.69	0.623	0.949	0.772	0.715
A-427	0.81	0.813	0.705	0.778	0.652	0.173	0.181	0.166	0.173	0.235	1.14	1.1	1.07	1.06	1.21	1.04	0.919	1.1
ABC-1	0.785	1.17	0.833	0.61	0.771	0.145	0.172	0.222	0.177	0.14	0.906	0.58	0.697	0.907	0.792	1.45	1.21	1.26
BEN	1.09	0.893	1.01	1.16	1.02	0.548	0.47	0.622	0.608	0.496	1.03	0.672	0.835	0.972	0.916	0.67	0.684	0.629
CAL-12T	0.808	0.717	0.668	0.777	0.737	0.364	0.245	0.303	0.371	0.261	0.889	0.607	0.889	0.824	0.874	–	0.531	0.592
COR-L23	0.414	0.364	0.456	0.34	0.322	0.238	0.175	0.178	0.169	0.166	1.02	–	0.866	0.938	1.06	1.24	0.872	0.913
COR-L 105	0.661	0.798	0.633	0.715	0.601	0.361	0.337	0.329	0.379	0.32	1.08	0.912	0.923	1.08	0.861	0.377	0.386	0.371
Calu-6	0.568	0.576	0.599	0.611	0.604	–	–	–	–	–	1.1	0.695	0.978	0.997	1.15	0.945	0.901	0.966
ChaGo-K-1	0.443	0.402	0.41	0.362	0.223	0.209	0.234	0.209	0.216	0.234	–	–	–	–	–	–	–	–
EBC-1	0.838	0.559	0.632	0.839	0.751	–	–	–	–	–	1.03	0.556	0.977	1.15	1.05	0.307	0.353	0.337
EKVX	1.03	0.821	0.846	0.895	0.704	0.415	0.361	0.382	0.359	0.356	1.13	0.678	1.07	1.21	0.78	0.187	0.188	0.171
EMC-BAC-2	0.472	0.459	0.468	0.481	0.448	0.394	0.306	0.295	0.263	0.254	0.901	0.678	0.797	0.851	0.773	0.975	0.864	0.904
EPLC-272H	0.752	0.461	1.22	0.647	0.291	0.196	0.288	0.208	0.237	0.249	1.2	0.768	1.24	1.04	0.96	1.05	0.818	0.924
H3255	0.608	0.513	0.595	0.558	0.505	0.621	0.372	0.611	0.692	0.466	1.17	0.814	1.01	0.918	0.945	0.249	0.231	0.223
HARA	0.795	–	0.764	0.632	0.763	0.146	0.11	0.453	0.0948	0.101	0.861	0.789	0.902	1.02	1.35	0.642	0.575	0.552
HCC-15	0.666	0.628	0.756	0.701	0.693	0.438	0.342	0.345	0.383	0.301	0.924	0.755	0.863	0.892	0.839	0.933	0.866	0.748
HCC-44	1.01	0.958	1	1.01	1.02	1.17	0.947	0.925	0.873	0.676	0.718	0.674	0.68	0.663	0.693	1.07	1.04	0.998
HCC-78	0.849	0.714	0.93	0.938	0.762	0.436	0.4	0.515	0.431	0.448	0.481	0.43	0.447	0.734	0.47	0.61	0.592	0.614
HCC-366	0.384	0.281	0.366	0.383	0.393	0.123	0.0945	0.0992	0.0958	0.0525	0.531	0.405	0.594	0.886	0.569	1.29	1.13	0.951
HCC-827	0.705	0.67	0.627	0.715	0.666	0.452	0.417	0.376	0.4	0.419	1.01	0.916	0.99	0.959	0.992	0.231	0.201	0.217

Cell Line	relative viability (RO-3306 + Olaparib; first compound 0.01 µM)	relative viability (RO-3306 + Olaparib; first compound 0.03162 µM)	relative viability (RO-3306 + Olaparib; first compound 0.1 µM)	relative viability (RO-3306 + Olaparib; first compound 0.3162 µM)	relative viability (RO-3306 + Olaparib; first compound 1 µM)	relative viability (RO-3306 + Tozasertib; first compound 0.01 µM)	relative viability (RO-3306 + Tozasertib; first compound 0.03162 µM)	relative viability (RO-3306 + Tozasertib; first compound 0.1 µM)	relative viability (RO-3306 + Tozasertib; first compound 0.3162 µM)	relative viability (RO-3306 + Tozasertib; first compound 1 µM)	relative viability (RO-3306 + Linsitinib; first compound 0.01 µM)	relative viability (RO-3306 + Linsitinib; first compound 0.03162 µM)	relative viability (RO-3306 + Linsitinib; first compound 0.1 µM)	relative viability (RO-3306 + Linsitinib; first compound 0.3162 µM)	relative viability (RO-3306 + Linsitinib; first compound 1 µM)	relative viability ([1]; first compound 0.8 µM)	relative viability ([1]; first compound 2.53 µM)	relative viability ([1]; first compound 8 µM)
HOP-62	0.606	0.476	0.168	0.406	0.678	0.346	0.304	0.353	0.39	0.377	0.951	0.985	0.892	0.978	0.973	1.18	0.812	0.798
IA-LM	0.975	–	0.785	0.846	0.865	–	–	–	–	–	0.559	–	0.56	0.571	0.809	0.903	0.68	0.752
LC-2-ad	0.703	0.663	0.719	0.693	0.712	0.433	0.404	0.44	0.485	0.404	0.902	0.757	0.813	0.833	0.817	1.04	0.876	0.99
LCLC-97TM1	0.406	0.479	0.315	0.367	0.278	0.224	0.22	0.175	0.205	0.172	–	0.167	0.203	0.202	0.162	1.09	0.653	0.71
LCLC-103H	0.836	0.776	0.772	0.733	0.784	0.439	0.45	0.405	0.458	0.499	1.03	0.934	1.16	1.05	1.05	–	–	–
LK-2	0.735	0.566	0.841	0.577	0.734	0.183	–	0.164	0.167	0.169	0.552	0.495	0.635	0.425	0.554	1.13	0.82	0.913
LOU-NH91	0.953	0.834	0.916	0.913	0.813	0.667	0.63	0.669	0.638	0.561	0.982	0.899	0.982	0.864	0.899	0.859	0.832	0.854
LU99A	0.275	0.233	0.233	0.25	0.2	0.285	0.257	0.258	0.254	0.231	0.561	0.489	0.515	0.525	0.495	1.11	1.05	0.901
LXF-289	1.06	0.897	1.06	1.08	0.692	0.216	0.199	0.187	0.181	0.199	1.08	0.913	0.969	0.957	0.961	0.797	0.775	0.758
NCI-H441	0.641	0.461	0.592	0.581	0.443	0.587	0.527	0.604	0.538	0.481	0.53	0.385	0.479	0.554	0.405	–	–	–
NCI-H522	0.619	0.561	0.634	0.546	0.608	0.545	0.495	0.595	0.567	0.5	–	–	–	–	–	–	–	–
NCI-H1299	0.993	0.99	0.988	0.997	0.97	–	–	–	–	–	1.1	0.913	1.03	1.12	1.08	0.923	0.952	0.879
NCI-H1563	–	–	–	–	–	–	–	–	–	–	1.08	1.14	1.3	1.18	1.16	0.85	0.899	0.761
NCI-H1623	–	–	–	–	–	0.45	0.409	0.442	0.446	0.391	–	–	–	–	–	–	–	–
NCI-H1648	0.679	–	0.927	0.767	0.885	0.406	–	0.558	0.362	0.478	–	–	–	–	–	–	–	–
NCI-H1650	0.933	0.718	0.809	0.784	0.656	0.398	0.366	0.345	0.309	0.316	–	–	–	–	–	0.871	0.735	0.723
NCI-H1703	0.387	0.38	0.387	0.389	0.429	–	–	–	–	–	1.04	0.409	0.598	0.22	0.681	1.21	0.749	0.906
NCI-H1792	0.544	–	0.484	0.51	0.436	–	–	–	–	–	0.728	–	0.569	0.604	0.31	0.932	0.783	0.665
NCI-H2170	0.658	0.589	0.631	0.546	0.509	0.689	0.933	0.663	0.804	0.679	–	–	–	–	–	0.276	0.299	0.288
NCI-H2342	0.574	0.499	0.428	0.437	0.379	0.54	0.537	0.492	0.47	0.506	–	–	–	–	–	–	–	–
SW 900	0.96	0.809	0.72	0.789	0.807	0.659	0.474	0.444	0.438	0.329	–	–	–	–	–	–	–	–
